According to US10479780B2, “Aminopyrazole derivatives” (Chugai Seiyaku Kabushiki Kaisha, priority 2015, dated 2019):
pIC50: −log10 of the molar value.

Columns and labels:
Format in all cases: biochemical
human Yes1 enzyme = molecular target: T1, human Yes1 enzyme (Homo sapiens, UniProt P07947); test: Yes1 enzyme inhibitory activity (time-resolved fluorometry, biotinylated peptide phosphorylation); settings: biotinylated peptide phosphorylation, read-out: YES_IC50
T1 construct: made in house
Method: (§1) 1. Yes1 Enzyme Inhibitory Activity Yes1 inhibitory activity was determined based on activity of inhibiting phosphorylation reaction of a biotinylated peptide (EGPWLEEEEEAYGWMDF) using a human Yes1 enzyme prepared using a baculovirus expression system. The phosphorylated biotinylated peptide was detected by time-resolved fluorometry using an anti-phosphorylated tyrosine antibody conjugated to europium cryptate, and streptavidin conjugated to XL665, an allophycocyanin derivative. The 50% inhibitory concentration (IC50) was calculated from the inhibition rate relative to the control group without containing the test substance.

human Src enzyme = molecular target: T2, human Src enzyme (Homo sapiens, UniProt P12931); test: Src enzyme inhibitory activity (time-resolved fluorometry, biotinylated peptide phosphorylation); settings: biotinylated peptide phosphorylation, read-out: SRC_IC50
T2 construct: purchased Carna Biosciences, Inc. 08-173
T2 sequence (P12931 whole entry): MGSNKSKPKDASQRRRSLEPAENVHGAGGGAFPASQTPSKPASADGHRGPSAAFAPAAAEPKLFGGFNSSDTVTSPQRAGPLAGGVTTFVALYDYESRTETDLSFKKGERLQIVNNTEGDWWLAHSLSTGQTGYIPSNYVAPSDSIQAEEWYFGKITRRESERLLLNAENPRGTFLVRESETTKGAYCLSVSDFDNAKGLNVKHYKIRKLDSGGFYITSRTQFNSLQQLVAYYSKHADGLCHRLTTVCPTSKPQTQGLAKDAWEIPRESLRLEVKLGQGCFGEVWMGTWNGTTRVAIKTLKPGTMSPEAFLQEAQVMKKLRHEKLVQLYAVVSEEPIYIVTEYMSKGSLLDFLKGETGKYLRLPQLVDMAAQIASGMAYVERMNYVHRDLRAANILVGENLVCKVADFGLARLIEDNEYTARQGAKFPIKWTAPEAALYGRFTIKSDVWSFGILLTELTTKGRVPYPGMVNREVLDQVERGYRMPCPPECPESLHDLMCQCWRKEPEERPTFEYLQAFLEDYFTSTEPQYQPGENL
Method: as §1, with “2. Src” for “1. Yes1”, “Src” for “Yes1”, “(manufactured by Carna Biosciences, Inc., cat 08-173).” for “prepared using a baculovirus expression system.”

human Lck enzyme = molecular target: T3, human Lck enzyme (Homo sapiens, UniProt P06239); test: Lck enzyme inhibitory activity (time-resolved fluorometry, biotinylated peptide phosphorylation); settings: biotinylated peptide phosphorylation, read-out: LCK_IC50
T3 construct: purchased Carna Biosciences, Inc. 08-170
T3 sequence (P06239 whole entry): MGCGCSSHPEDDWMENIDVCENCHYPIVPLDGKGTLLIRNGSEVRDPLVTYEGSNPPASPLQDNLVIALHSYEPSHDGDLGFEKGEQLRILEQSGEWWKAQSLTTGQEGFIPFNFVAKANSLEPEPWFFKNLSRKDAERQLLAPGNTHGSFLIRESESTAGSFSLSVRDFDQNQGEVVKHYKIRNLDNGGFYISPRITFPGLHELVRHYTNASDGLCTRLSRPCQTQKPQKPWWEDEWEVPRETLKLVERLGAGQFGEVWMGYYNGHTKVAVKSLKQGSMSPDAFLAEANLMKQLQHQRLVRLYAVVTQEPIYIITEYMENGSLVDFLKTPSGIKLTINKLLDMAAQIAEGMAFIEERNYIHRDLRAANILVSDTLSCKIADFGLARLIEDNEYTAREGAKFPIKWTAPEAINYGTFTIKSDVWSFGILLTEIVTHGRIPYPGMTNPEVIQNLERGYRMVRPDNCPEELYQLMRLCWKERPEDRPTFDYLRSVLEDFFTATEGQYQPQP
Method: as §1, with “3. Lck” for “1. Yes1”, “Lck” for “Yes1”, “(manufactured by Carna Biosciences, Inc., cat 08-170).” for “prepared using a baculovirus expression system.”

T1 sequence (P07947 whole entry): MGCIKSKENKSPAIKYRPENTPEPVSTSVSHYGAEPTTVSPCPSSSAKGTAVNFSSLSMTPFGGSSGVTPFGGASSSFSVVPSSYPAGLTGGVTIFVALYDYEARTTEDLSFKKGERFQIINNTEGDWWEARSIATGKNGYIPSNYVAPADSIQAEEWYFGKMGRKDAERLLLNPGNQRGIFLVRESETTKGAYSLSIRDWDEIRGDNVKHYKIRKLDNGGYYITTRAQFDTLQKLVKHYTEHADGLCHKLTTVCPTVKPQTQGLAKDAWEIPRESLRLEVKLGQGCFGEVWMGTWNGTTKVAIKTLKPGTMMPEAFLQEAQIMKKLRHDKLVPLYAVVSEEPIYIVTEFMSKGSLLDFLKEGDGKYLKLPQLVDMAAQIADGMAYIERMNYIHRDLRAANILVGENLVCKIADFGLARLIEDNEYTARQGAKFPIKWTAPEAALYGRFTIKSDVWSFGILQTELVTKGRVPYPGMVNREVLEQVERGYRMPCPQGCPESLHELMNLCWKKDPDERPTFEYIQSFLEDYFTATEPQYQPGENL

| SMILES | pIC50 (human Yes1 enzyme) | pIC50 (human Src enzyme) | pIC50 (human Lck enzyme) |
| --- | --- | --- | --- |
| CS(=O)(=O)Nc1cc2[nH]c(C(=O)c3cnn(-c4ccc(Oc5ccccn5)cc4Cl)c3N)cc2cc1F [Example 4-1-003, N-[2-[5-amino-1-(2-chloro-4-pyridin-2-yloxyphenyl)pyrazole-4-carbonyl]-5-fluoro-1H-indol-6-yl]methanesulfonamide] | 8.92 | 7.26 | 7.85 |
| COc1cc2cc(C(=O)c3cnn(-c4ccc(Oc5cccc(F)c5F)cc4C)c3N)[nH]c2cc1NS(C)(=O)=O [Example 4-1-005, N-[2-[5-amino-1-[4-(2,3-difluorophenoxy)-2-methylphenyl]pyrazole-4-carbonyl]-5-methoxy-1H-indol-6-yl]methanesulfonamide] | 9.00 | 7.20 | 8.11 |
| COc1cc2cc(C(=O)c3cnn(-c4c(C)cc(Oc5ccccc5F)cc4F)c3N)[nH]c2cc1NS(C)(=O)=O [Example 4-1-006, N-[2-[5-amino-1-[2-fluoro-4-(2-fluorophenoxy)-6-methylphenyl]pyrazole-4-carbonyl]-5-methoxy-1H-indol-6-yl]methanesulfonamide] | 8.74 | 7.13 | 7.96 |
| COc1cc2cc(C(=O)c3cnn(-c4c(C)cc(Oc5ccccc5)cc4F)c3N)[nH]c2cc1NS(C)(=O)=O [Example 4-1-007, N-[2-[5-amino-1-(2-fluoro-6-methyl-4-phenoxyphenyl)pyrazole-4-carbonyl]-5-methoxy-1H-indol-6-yl]methanesulfonamide] | 8.96 | 7.21 | 8.12 |
| COc1cc2cc(C(=O)c3cnn(-c4cnc(Oc5ccccc5F)cc4C)c3N)[nH]c2cc1NS(C)(=O)=O [Example 4-1-008, N-[2-[5-amino-1-[6-(2-fluorophenoxy)-4-methylpyridin-3-yl]pyrazole-4-carbonyl]-5-methoxy-1H-indol-6-yl]methanesulfonamide] | 9.16 | 7.28 | 8.40 |
| COc1cc2cc(C(=O)c3cnn(-c4cnc(Oc5ccccc5Cl)cc4C)c3N)[nH]c2cc1NS(C)(=O)=O [Example 4-1-010, N-[2-[5-amino-1-[6-(2-chlorophenoxy)-4-methylpyridin-3-yl]pyrazole-4-carbonyl]-5-methoxy-1H-indol-6-yl]methanesulfonamide] | 8.96 | 7.34 | 7.60 |
| Cc1cc(Oc2c(F)cccc2F)ncc1-n1ncc(C(=O)c2cc3cc(OC(F)F)c(C4CCN(C(=O)OC(C)(C)C)CC4)cc3[nH]2)c1N [Example 4-1-012, tert-butyl 4-[2-[5-amino-1-[6-(2,6-difluorophenoxy)-4-methylpyridin-3-yl]pyrazole-4-carbonyl]-5-(difluoromethoxy)-1H-indol-6-yl]piperidine-1-carboxylate] | 7.47 | 7.05 | 7.41 |
| Cc1cc(Oc2c(F)cccc2F)ncc1-n1ncc(C(=O)c2cc3cc(OCC(F)F)c(N4CCOCC4)cc3[nH]2)c1N [Example 4-1-016, [5-amino-1-[6-(2,6-difluorophenoxy)-4-methylpyridin-3-yl]pyrazol-4-yl]-[5-(2,2-difluoroethoxy)-6-morpholin-4-yl-1H-indol-2-yl]methanone] | 8.68 | 7.85 | 8.12 |
| Cc1cc2cc(C(=O)c3cnn(-c4cnc(Oc5c(F)cccc5F)cc4C)c3N)[nH]c2cc1NS(=O)(=O)C1CC1 [Example 4-1-017, N-[2-[5-amino-1-[6-(2,6-difluorophenoxy)-4-methylpyridin-3-yl]pyrazole-4-carbonyl]-5-methyl-1H-indol-6-yl]cyclopropanesulfonamide] | 8.51 | 7.00 | 8.31 |
| Cc1cc(Oc2ccccc2F)ccc1-n1ncc(C(=O)c2cc3cc(C4CCN(C(C)C)CC4)c(F)cc3[nH]2)c1N [Example 4-2-001, [5-amino-1-[4-(2-fluorophenoxy)-2-methylphenyl]pyrazol-4-yl]-[6-fluoro-5-(1-propan-2-ylpiperidin-4-yl)-1H-indol-2-yl]methanone] | 9.00 | 8.39 | 8.51 |

The next lines start with the values.

| pIC50 (human Yes1 enzyme) | pIC50 (human Src enzyme) | pIC50 (human Lck enzyme) | SMILES |
| --- | --- | --- | --- |
| 8.92 | 7.35 | 8.09 | Cc1cc2cc(C(=O)c3cnn(-c4cnc(Oc5c(F)cccc5F)cc4C)c3N)[nH]c2cc1NS(C)(=O)=O [Example 4-1-001, N-{2-{5-amino-1-[6-(2,6-difluorophenoxy)-4-methylpyridin-3-yl]pyrazole-4-carbonyl}-5-methyl-1H-indol-6-yl}methanesulfonamide] |
| 9.28 | 7.68 | 8.12 | Cc1cc(Oc2ccccc2F)ccc1-n1ncc(C(=O)c2cc3cc(F)c(NS(C)(=O)=O)cc3[nH]2)c1N [Example 4-1-002, N-[2-[5-amino-1-[4-(2-fluorophenoxy)-2-methylphenyl]pyrazole-4-carbonyl]-5-fluoro-1H-indol-6-yl]methanesulfonamide] |
| 9.28 | 7.68 | 8.47 | COc1cc2cc(C(=O)c3cnn(-c4ccc(Oc5ccccc5F)cc4C)c3N)[nH]c2cc1NS(C)(=O)=O [Example 4-1-004, N-[2-[5-Amino-1-[4-(2-fluorophenoxy)-2-methylphenyl]pyrazole-4-carbonyl]-5-methoxy-1H-indol-6-yl]methanesulfonamide] |
| 8.96 | 7.23 | 8.35 | COc1cc2cc(C(=O)c3cnn(-c4cnc(Oc5c(F)cccc5F)cc4C)c3N)[nH]c2cc1NS(C)(=O)=O [Example 4-1-009, N-[2-[5-amino-1-[6-(2,6-difluorophenoxy)-4-methylpyridin-3-yl]pyrazole-4-carbonyl]-5-methoxy-1H-indol-6-yl]methanesulfonamide] |
| 8.26 | 6.77 | 7.39 | COc1cc2cc(C(=O)c3cnn(-c4cnc(Oc5cccc(Cl)c5)cc4C)c3N)[nH]c2cc1NS(C)(=O)=O [Example 4-1-011, N-[2-[5-amino-1-[6-(3-chlorophenoxy)-4-methylpyridin-3-yl]pyrazole-4-carbonyl]-5-methoxy-1H-indol-6-yl]methanesulfonamide] |
| 9.35 | 8.59 | 8.89 | COc1cc2[nH]c(C(=O)c3cnn(-c4ccc(Oc5ccccc5F)cc4C)c3N)cc2cc1NS(C)(=O)=O [Example 4-1-013, N-[2-[5-amino-1-[4-(2-fluorophenoxy)-2-methylphenyl]pyrazole-4-carbonyl]-6-methoxy-1H-indol-5-yl]methanesulfonamide] |
| 9.44 | 8.24 | 8.85 | COc1cc2[nH]c(C(=O)c3cnn(-c4cnc(Oc5ccccc5F)cc4C)c3N)cc2cc1NS(C)(=O)=O [Example 4-1-014, N-[2-[5-amino-1-[6-(2-fluorophenoxy)-4-methylpyridin-3-yl]pyrazole-4-carbonyl]-6-methoxy-1H-indol-5-yl]methanesulfonamide] |
| 9.00 | 7.85 | 8.00 | Cc1cc(Oc2ccccc2F)ccc1-n1ncc(C(=O)c2cc3cc(OCC(F)F)c(N4CCOCC4)cc3[nH]2)c1N [Example 4-1-015, [5-amino-1-[4-(2-fluorophenoxy)-2-methylphenyl]pyrazol-4-yl]-[5-(2,2-difluoroethoxy)-6-morpholin-4-yl-1H-indol-2-yl]methanone] |
